# ChEMBL document CHEMBL2176970, “Discovery and optimization of a series of 3-(3-phenyl-3H-imidazo[4,5-b]pyridin-2-yl)pyridin-2-amines: orally bioavailable, selective, and potent ATP-independent Akt inhibitors” (J Med Chem, 2012)
# pIC50: −log10 of the molar value. Calls of active or inactive are those of the source. No cut-off for these calls is given here.
# Legend:
# [1] = biological target: T1, RAC-alpha serine/threonine-protein kinase (Homo sapiens, UniProt P31749); experiment: Inhibition of Akt1 (1 to 480) expressed in Sf9 cells in presence of A674563
# T1 sequence (P31749 whole entry): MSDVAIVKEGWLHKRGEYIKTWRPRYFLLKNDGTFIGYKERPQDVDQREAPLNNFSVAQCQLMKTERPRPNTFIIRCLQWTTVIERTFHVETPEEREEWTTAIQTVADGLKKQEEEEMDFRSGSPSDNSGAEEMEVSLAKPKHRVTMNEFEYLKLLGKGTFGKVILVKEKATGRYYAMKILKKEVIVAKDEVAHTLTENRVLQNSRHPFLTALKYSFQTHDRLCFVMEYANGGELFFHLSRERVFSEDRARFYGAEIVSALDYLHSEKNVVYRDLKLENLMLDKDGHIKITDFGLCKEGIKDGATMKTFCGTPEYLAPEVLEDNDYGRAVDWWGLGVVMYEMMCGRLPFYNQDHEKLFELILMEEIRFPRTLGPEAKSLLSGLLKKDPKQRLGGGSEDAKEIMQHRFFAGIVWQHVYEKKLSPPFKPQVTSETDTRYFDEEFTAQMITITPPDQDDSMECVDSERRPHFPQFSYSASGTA
# [2] = biological target: T1, RAC-alpha serine/threonine-protein kinase; experiment: Inhibition of Akt1 in human AN3CA cells assessed as phosphorylation PRAS40 at T246 after 2 hrs by Western Blot analysis; assay type: cell-based, AN3-CA
# [3] = Half life in female CD1 mouse liver microsomes at 1 uM by LC/MS/MS; assay type: ADME, Microsome
# [4] = test system: A2780; experiment: Antiproliferative activity against human A2780 cells after 72 hrs by MTS assay; assay type: functional, cell-based; conditions: A2780, 72 h
# [5] = test system: Mus musculus; experiment: Inhibition of Akt in human AN3CA cells xenografted NCr mouse assessed as reduction of Akt phosphorylation at T308 in tumor at 250 mg/kg, po after 2 hrs; assay type: functional; conditions: AN3-CA
# [6] = biological target: T1, RAC-alpha serine/threonine-protein kinase; experiment: Inhibition of Akt1 in human AN3CA cells assessed as phosphorylation of Akt at S473 after 2 hrs by Western Blot analysis; assay type: cell-based, AN3-CA
# [7] = biological target: T2, RAC-beta serine/threonine-protein kinase (Homo sapiens, UniProt P31751); experiment: Binding affinity to Akt2 (1 to 481) expressed in Sf9 cells assessed as change in melting temperature at 15 uM
# T2 sequence (P31751 whole entry): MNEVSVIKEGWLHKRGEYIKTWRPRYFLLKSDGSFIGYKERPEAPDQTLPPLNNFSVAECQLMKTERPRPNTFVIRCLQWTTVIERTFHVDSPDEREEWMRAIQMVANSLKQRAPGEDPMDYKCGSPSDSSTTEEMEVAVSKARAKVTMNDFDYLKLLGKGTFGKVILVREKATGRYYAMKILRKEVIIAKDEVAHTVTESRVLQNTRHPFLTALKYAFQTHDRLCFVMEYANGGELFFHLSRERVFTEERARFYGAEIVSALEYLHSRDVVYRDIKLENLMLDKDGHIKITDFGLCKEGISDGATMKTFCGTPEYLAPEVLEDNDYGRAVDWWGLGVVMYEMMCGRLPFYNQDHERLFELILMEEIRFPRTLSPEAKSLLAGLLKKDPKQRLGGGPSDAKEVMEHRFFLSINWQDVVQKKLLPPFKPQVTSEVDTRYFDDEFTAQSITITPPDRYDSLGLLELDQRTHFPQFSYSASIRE
# [8] = biological target: T1, RAC-alpha serine/threonine-protein kinase; experiment: Inhibition of Akt 1 in human AN3CA cells assessed as phosphorylation of Akt at T308 after 2 hrs by Western Blot analysis; assay type: cell-based, AN3-CA
# [9] = biological target: T3, RAC-gamma serine/threonine-protein kinase (Homo sapiens, UniProt Q9Y243); experiment: Binding affinity to Akt3 (1 to 479) expressed in Sf9 cells assessed as change in melting temperature at 15 uM
# T3 sequence (Q9Y243 whole entry): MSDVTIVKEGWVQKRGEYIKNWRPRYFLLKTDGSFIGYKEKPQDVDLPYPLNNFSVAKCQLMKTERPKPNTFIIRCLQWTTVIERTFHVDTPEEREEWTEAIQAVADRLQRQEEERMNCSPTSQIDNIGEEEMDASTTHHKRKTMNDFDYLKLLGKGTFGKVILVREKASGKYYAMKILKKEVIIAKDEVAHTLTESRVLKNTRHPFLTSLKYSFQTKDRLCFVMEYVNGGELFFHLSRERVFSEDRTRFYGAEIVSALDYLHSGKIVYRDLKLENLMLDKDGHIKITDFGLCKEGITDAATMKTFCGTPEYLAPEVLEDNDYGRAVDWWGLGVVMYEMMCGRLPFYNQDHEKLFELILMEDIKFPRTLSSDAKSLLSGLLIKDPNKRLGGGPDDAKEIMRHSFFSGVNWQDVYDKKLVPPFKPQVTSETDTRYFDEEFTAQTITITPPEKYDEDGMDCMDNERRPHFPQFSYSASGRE
# [10] = biological target: T4, Cytochrome P450 2C8 (Homo sapiens, UniProt P10632); experiment: Inhibition of CYP2C8 in human liver microsomes using paclitaxel as substrate after 10 mins; assay type: ADME, Microsome
# T4 sequence (P10632 whole entry): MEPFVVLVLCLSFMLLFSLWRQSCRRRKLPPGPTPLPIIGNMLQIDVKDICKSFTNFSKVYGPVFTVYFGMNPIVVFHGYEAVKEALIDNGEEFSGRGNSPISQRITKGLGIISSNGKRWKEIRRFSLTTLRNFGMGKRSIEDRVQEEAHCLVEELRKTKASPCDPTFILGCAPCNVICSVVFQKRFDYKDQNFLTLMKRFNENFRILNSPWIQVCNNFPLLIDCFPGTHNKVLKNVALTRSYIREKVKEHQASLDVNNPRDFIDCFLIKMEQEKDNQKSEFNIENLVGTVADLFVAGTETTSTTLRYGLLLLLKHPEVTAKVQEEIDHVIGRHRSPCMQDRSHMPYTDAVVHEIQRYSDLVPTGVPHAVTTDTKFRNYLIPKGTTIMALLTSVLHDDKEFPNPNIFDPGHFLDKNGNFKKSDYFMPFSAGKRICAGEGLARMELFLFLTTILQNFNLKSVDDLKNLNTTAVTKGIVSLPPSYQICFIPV
# [11] = Half life in human liver microsomes at 1 uM by LC/MS/MS; assay type: ADME, Microsome
# [12] = test system: Mus musculus; experiment: Inhibition of Akt in human AN3CA cells xenografted NCr mouse assessed as reduction of Akt phosphorylation at T308 in tumor at 250 mg/kg, po after 4 hrs; assay type: functional; conditions: AN3-CA
# [13] = Drug level in human AN3CA cells xenografted NCr mouse tumor at 250 mg/kg, po after 2 hrs; assay type: ADME, organism-based, Neoplasm, AN3-CA; design: dose 250 mg/kg, route oral; conditions: read-out: Drug uptake
# [14] = biological target: T3, RAC-gamma serine/threonine-protein kinase; experiment: Inhibition of Akt3 (1 to 479) expressed in Sf9 cells using biotin-GRPRTSSFAEG as substrate after 20 mins by Alpha-screen assay
# [15] = biological target: Cytochrome P450 2C9 (Homo sapiens, UniProt P11712); experiment: Inhibition of CYP2C9 in human liver microsomes using tolbutamide as substrate after 10 mins; assay type: ADME, Microsome
# Chain of Cytochrome P450 2C9 (P11712 whole entry): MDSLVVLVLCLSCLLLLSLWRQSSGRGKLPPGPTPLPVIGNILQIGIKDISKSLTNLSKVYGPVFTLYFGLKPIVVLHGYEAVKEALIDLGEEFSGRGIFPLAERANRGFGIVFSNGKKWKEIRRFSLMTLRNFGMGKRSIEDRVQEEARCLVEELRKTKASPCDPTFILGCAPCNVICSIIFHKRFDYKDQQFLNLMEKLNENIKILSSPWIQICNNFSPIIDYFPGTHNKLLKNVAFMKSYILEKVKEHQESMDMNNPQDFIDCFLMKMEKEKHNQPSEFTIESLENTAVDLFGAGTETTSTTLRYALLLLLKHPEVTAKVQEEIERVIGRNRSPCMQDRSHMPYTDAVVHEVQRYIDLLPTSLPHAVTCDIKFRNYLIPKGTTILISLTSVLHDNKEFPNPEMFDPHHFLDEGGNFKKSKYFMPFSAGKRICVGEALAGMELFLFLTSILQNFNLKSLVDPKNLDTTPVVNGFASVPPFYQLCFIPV
# [16] = biological target: T1, RAC-alpha serine/threonine-protein kinase; experiment: Inhibition of Akt1 in human A2780 cells assessed as phosphorylation PRAS40 at T246 after 2 hrs by Western Blot analysis; assay type: cell-based
# [17] = biological target: Cytochrome P450 2D6 (Homo sapiens, UniProt P10635); experiment: Inhibition of CYP2D6 in human liver microsomes using bufuralol as substrate after 10 mins; assay type: ADME, Microsome
# Chain of Cytochrome P450 2D6 (P10635 whole entry): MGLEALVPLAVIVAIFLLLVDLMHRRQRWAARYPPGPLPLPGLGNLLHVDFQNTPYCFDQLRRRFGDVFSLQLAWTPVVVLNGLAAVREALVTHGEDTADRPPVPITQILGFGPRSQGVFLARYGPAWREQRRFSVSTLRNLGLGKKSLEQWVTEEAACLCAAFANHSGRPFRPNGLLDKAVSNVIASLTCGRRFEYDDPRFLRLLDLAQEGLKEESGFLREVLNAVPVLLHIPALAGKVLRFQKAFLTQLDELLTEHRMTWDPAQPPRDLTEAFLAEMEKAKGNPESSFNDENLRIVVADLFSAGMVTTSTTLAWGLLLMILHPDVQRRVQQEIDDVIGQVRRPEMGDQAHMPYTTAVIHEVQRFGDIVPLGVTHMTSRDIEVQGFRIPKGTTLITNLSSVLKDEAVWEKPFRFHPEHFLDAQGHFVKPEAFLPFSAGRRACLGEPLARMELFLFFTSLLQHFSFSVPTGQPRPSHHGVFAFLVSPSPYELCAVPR
# [18] = biological target: T5, Cytochrome P450 1A2 (Homo sapiens, UniProt P05177); experiment: Inhibition of CYP1A2 in human liver microsomes using phenacetin as substrate after 10 mins; assay type: ADME, Microsome
# T5 sequence (P05177 whole entry): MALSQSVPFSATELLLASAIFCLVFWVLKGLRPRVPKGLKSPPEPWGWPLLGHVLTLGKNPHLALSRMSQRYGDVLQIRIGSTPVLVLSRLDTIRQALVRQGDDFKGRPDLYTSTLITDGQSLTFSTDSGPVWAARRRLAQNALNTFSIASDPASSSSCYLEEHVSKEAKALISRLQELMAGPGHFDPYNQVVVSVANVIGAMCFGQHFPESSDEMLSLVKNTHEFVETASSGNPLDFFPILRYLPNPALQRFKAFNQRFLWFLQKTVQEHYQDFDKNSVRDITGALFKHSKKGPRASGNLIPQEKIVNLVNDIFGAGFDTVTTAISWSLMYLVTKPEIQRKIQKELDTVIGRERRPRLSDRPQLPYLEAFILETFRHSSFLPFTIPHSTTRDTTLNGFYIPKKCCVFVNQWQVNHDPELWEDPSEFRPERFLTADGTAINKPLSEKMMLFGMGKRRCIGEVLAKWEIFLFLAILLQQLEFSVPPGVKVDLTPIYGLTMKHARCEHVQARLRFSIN
# [19] = test system: Mus musculus; experiment: Inhibition of Akt in human AN3CA cells xenografted NCr mouse assessed as reduction of Akt phosphorylation at S473 in tumor at 250 mg/kg, po after 2 hrs; assay type: functional; conditions: AN3-CA
# [20] = Plasma concentration in CD1 mouse at 250 mg/kg, po after 4 hrs by LC/MS/MS analysis; assay type: ADME, organism-based; design: dose 250 mg/kg, route oral
# [21] = Plasma concentration in CD1 mouse at 250 mg/kg, po after 2 hrs by LC/MS/MS analysis; assay type: ADME, organism-based; design: dose 250 mg/kg, route oral
# [22] = biological target: T1, RAC-alpha serine/threonine-protein kinase; experiment: Inhibition of Akt1 in human A2780 cells assessed as phosphorylation of Akt at S473 after 2 hrs by Western Blot analysis; assay type: cell-based
# [23] = biological target: T1, RAC-alpha serine/threonine-protein kinase; experiment: Inhibition of Akt 1 in human A2780 cells assessed as phosphorylation of Akt at T308 after 2 hrs by Western Blot analysis; assay type: cell-based
# [24] = Drug level in human AN3CA cells xenografted NCr mouse tumor at 250 mg/kg, po after 4 hrs; assay type: ADME, organism-based, Neoplasm, AN3-CA; design: dose 250 mg/kg, route oral; conditions: read-out: Drug uptake
# [25] = biological target: T2, RAC-beta serine/threonine-protein kinase; experiment: Inhibition of Akt2 (1 to 481) expressed in Sf9 cells using biotin-GRPRTSSFAEG as substrate after 20 mins by Alpha-screen assay
# [26] = test system: Mus musculus; experiment: Inhibition of Akt in human AN3CA cells xenografted NCr mouse assessed as reduction of Akt phosphorylation at S473 in tumor at 250 mg/kg, po after 4 hrs; assay type: functional; conditions: AN3-CA
# [27] = test system: AN3-CA; experiment: Antiproliferative activity against human AN3CA cells after 72 hrs by MTS assay; assay type: functional, cell-based
# [28] = test system: Mus musculus; experiment: Inhibition of Akt in human AN3CA cells xenografted NCr mouse assessed as reduction of p70S6 phosphorylation at T389 in tumor at 250 mg/kg, po after 2 hrs; assay type: functional; conditions: AN3-CA
# [29] = biological target: Cytochrome P450 3A4 (Homo sapiens, UniProt P08684); experiment: Inhibition of CYP3A4 in human liver microsomes using midazolam as substrate after 10 mins; assay type: ADME, Microsome
# Chain of Cytochrome P450 3A4 (P08684 whole entry): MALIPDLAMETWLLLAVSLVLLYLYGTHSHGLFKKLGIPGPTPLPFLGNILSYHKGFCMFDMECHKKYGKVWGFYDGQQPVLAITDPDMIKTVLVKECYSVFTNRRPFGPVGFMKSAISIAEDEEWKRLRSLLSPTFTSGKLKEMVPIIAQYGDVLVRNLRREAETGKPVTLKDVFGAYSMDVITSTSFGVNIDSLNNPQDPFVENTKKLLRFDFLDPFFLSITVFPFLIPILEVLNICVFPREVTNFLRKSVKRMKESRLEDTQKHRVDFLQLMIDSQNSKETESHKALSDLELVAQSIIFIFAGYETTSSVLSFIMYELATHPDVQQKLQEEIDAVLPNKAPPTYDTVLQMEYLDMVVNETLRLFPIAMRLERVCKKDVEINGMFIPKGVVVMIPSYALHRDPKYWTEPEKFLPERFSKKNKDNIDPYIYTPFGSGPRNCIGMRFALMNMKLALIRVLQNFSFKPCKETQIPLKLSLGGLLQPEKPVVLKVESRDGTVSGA
# [30] = biological target: Cytochrome P450 2C19 (Homo sapiens, UniProt P33261); experiment: Inhibition of CYP2C19 in human liver microsomes using S-mephenytoin as substrate after 10 mins; assay type: ADME, Microsome
# Chain of Cytochrome P450 2C19 (P33261 whole entry): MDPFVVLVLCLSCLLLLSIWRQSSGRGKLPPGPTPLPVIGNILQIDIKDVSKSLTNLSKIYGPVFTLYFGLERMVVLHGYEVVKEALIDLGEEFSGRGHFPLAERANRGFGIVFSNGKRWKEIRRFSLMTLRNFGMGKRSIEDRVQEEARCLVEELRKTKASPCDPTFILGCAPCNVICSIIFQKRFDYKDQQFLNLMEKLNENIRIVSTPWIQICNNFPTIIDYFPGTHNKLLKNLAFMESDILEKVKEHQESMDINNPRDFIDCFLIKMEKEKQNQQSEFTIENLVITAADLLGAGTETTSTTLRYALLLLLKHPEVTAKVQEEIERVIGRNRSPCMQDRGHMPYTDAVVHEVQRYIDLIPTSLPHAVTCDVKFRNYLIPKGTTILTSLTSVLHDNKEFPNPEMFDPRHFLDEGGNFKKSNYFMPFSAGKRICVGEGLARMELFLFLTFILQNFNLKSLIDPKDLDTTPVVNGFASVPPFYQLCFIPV
# [31] = test system: Mus musculus; experiment: Inhibition of Akt in human AN3CA cells xenografted NCr mouse assessed as reduction of p70S6 phosphorylation at T389 in tumor at 250 mg/kg, po after 4 hrs; assay type: functional; conditions: AN3-CA
# [32] = biological target: T1, RAC-alpha serine/threonine-protein kinase; experiment: Binding affinity to Akt1 (1 to 480) expressed in Sf9 cells by SPR analysis
# [33] = Half life in male CD1 mouse liver microsomes at 1 uM by LC/MS/MS; assay type: ADME, Microsome
# [34] = biological target: T1, RAC-alpha serine/threonine-protein kinase; conditions: Sf9
# [35] = test system: Mus musculus; experiment: Inhibition of Akt in human AN3CA cells xenografted NCr mouse assessed as reduction of p70S6 phosphorylation at T389 in tumor at 100 mg/kg, po after 2 hrs; assay type: functional; conditions: AN3-CA
# [36] = Plasma concentration in CD1 mouse at 100 mg/kg, po after 2 hrs by LC/MS/MS analysis; assay type: ADME, organism-based; design: dose 100 mg/kg, route oral
# [37] = Oral bioavailability in NCr mouse at 100 mg/kg; assay type: ADME, organism-based; conditions: in vivo
# [38] = test system: Mus musculus; experiment: Inhibition of Akt in human AN3CA cells xenografted NCr mouse assessed as reduction of Akt phosphorylation at S473 in tumor at 100 mg/kg, po after 2 hrs; assay type: functional; conditions: AN3-CA
# [39] = biological target: T1, RAC-alpha serine/threonine-protein kinase; experiment: Inhibition of Akt1 (1 to 480) expressed in Sf9 cells using biotin-GRPRTSSFAEG as substrate after 20 mins by Alpha-screen assay
# [40] = test system: Mus musculus; experiment: Inhibition of Akt in human AN3CA cells xenografted NCr mouse assessed as reduction of Akt phosphorylation at T308 in tumor at 100 mg/kg, po after 2 hrs; assay type: functional; conditions: AN3-CA
# [41] = Drug level in human AN3CA cells xenografted NCr mouse tumor at 100 mg/kg, po after 2 hrs; assay type: ADME, organism-based, Neoplasm, AN3-CA; design: dose 100 mg/kg, route oral; conditions: read-out: Drug uptake
Structure (SMILES),pIC50 [2],half-life at 1 µM [3] [min],pIC50 [4],pIC50 [6],ΔTm [7] [°C],pIC50 [8],ΔTm [9] [°C],pIC50 [10],half-life at 1 µM [11] [min],pIC50 [14],pIC50 [15],pIC50 [16],pIC50 [17],pIC50 [18],pIC50 [22],pIC50 [23],pIC50 [25],pIC50 [27],pIC50 [29],pIC50 [30],further results
CC(=O)Nc1cccc(-c2ccc3nc(-c4cccnc4N)n(-c4ccc(CNC(=O)c5cccc(F)c5)cc4)c3n2)c1,6.66,> 30,5.66,7.36,7.7,7.35,2.9,6.00,> 30,6.77,6.00,6.60,< 5.00,< 5.00,7.57,7.49,7.74,5.70,< 5.00,6.00,inhibition [1]: Active; inhibition in vivo at 250 mg/kg [5]: 57%; inhibition in vivo at 250 mg/kg [12]: 67%; concentration at 2 h [13]: 1200 nM; inhibition in vivo at 250 mg/kg [19]: 62%; concentration at 4 h [20]: 1200 nM; concentration at 2 h [21]: 2000 nM; concentration at 4 h [24]: 600 nM; inhibition in vivo at 250 mg/kg [26]: 51%; inhibition in vivo at 250 mg/kg [28]: 90%; inhibition in vivo at 250 mg/kg [31]: 86%; Activity [32]: Active; half-life at 1 µM [33]: > 30 min; ΔTm [34]: 13 °C
Nc1ncccc1-c1nc2cc(-c3cccnc3)cnc2n1-c1ccc(CNC(=O)c2ccccc2)cc1,5.82,> 60,< 4.00,7.10,4.8,7.04,1.6,< 5.00,> 30,6.18,< 5.00,6.02,< 5.00,< 5.00,7.00,7.21,7.52,< 4.00,< 5.00,< 5.00,inhibition in vivo at 100 mg/kg [35]: 76%; concentration at 2 h [36]: 14100 nM; bioavailability [37]: 46%; inhibition in vivo at 100 mg/kg [38]: 82%; pIC50 [39]: 8.10; inhibition in vivo at 100 mg/kg [40]: 25%; concentration at 2 h [41]: 8400 nM; half-life at 1 µM [33]: > 60 min; ΔTm [34]: 9.2 °C
